Laboratory results reported in patent US20260297060A1, “COMPOUNDS FOR THE DEGRADATION OF MUTANT BRAF” (C4 THERAPEUTICS, INC., priority 2023, published 2026).

Target: T1, human bile salt export pump (BSEP) efflux transporter (Homo sapiens, UniProt O95342)
T1 construct: purchased SOLVO Biotechnology Charles River Laboratories, Szeged, Hungary; host or cells: HEK293 (inside out membrane vesicles)
Test: BSEP Vesicular Transport, one concentration inhibition assay
Type: biochemical
Details: human BSEP (HEK293) vesicles, taurocholate 0.2 μM, 4 mM Mg-ATP, 2 replicates
Method: The vesicular transport (VT) assays were performed using inside out membrane vesicles derived from HEK293 cells expressing the specified human bile salt export pump (BSEP) efflux transporter. The membrane vesicles were procured from SOLVO Biotechnology Charles River Laboratories, Szeged, Hungary.
The principle of the assay relies on measuring the accumulation of substrate into inside out vesicles containing the efflux transporter. By utilizing inside out vesicles, the ATP-dependent transport of substrate is directed into the vesicular lumen, where low permeability compounds are then essentially trapped.
For the 1 concentration inhibition assay, each compound was tested in the presence of ATP (active transport) in 2 replicates.
The solvent control (DMSO) was tested in the presence of ATP (active transport) and in the presence of AMP (background) in 8 replicates. […]
The samples were then be transferred to a filter plate and washed with 200 μL cold washing mix5-times to remove any free compounds or taurocholate probe substrate. The amount of taurocholate probe substrate inside the filtered vesicles were determined by liquid scintillation counting. […] The amount of taurocholate probe substrate inside the filtered vesicles were determined by liquid scintillation counting.

T1 sequence (O95342 whole entry): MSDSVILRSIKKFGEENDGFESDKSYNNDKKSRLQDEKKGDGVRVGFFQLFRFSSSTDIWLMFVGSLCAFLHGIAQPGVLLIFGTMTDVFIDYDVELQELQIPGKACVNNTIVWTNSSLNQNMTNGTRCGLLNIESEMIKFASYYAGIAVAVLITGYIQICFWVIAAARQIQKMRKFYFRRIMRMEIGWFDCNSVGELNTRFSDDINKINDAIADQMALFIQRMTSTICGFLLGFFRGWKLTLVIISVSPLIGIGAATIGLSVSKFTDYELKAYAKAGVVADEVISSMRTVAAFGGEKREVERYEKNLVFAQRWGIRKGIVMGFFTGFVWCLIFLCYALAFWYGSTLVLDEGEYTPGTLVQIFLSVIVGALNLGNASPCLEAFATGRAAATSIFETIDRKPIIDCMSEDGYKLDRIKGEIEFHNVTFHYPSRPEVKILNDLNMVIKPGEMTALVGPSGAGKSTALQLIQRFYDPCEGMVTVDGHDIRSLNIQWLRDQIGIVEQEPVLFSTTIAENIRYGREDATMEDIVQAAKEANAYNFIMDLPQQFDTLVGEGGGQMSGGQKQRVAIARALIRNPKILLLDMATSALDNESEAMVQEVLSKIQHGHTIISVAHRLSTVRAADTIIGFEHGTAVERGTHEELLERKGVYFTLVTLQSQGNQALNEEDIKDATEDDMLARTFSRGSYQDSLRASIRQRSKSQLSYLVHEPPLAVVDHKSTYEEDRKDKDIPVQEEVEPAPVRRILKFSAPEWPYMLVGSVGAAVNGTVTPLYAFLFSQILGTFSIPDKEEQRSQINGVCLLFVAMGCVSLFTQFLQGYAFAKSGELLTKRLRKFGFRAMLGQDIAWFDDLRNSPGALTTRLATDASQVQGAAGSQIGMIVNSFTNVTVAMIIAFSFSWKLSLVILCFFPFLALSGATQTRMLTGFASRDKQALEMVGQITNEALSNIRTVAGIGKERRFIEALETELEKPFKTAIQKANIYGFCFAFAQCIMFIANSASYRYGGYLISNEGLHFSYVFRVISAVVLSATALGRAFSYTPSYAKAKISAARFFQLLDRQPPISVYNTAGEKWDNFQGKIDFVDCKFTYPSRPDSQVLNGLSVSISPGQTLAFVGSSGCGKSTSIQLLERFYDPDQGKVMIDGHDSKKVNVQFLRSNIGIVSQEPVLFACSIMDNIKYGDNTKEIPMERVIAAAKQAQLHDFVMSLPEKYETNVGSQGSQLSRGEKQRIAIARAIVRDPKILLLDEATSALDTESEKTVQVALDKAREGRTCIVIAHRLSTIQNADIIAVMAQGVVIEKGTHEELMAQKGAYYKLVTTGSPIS

SMILES: CCN(C)S(=O)(=O)Nc1ccc(F)c(Oc2ccc3ncn([C@H]4COC5(CCN(C6CC(c7cc8c(cc7F)c(N7CCC(=O)NC7=O)nn8C)C6)CC5)C4)c(=O)c3c2)c1C#N (single isomer, unassigned) [Compound 70]
- BSEP Inhibition SD Inhibition %: 80%
